From ChEMBL document CHEMBL5608169, “A chemical modification of a peroxisome proliferator-activated receptor pan agonist produced a shift to a new dual alpha/gamma partial agonist endowed with mitochondrial pyruvate carrier inhibition and antidiabetic properties” (Eur J Med Chem, 2024)
Activity calls are given as the source filed them. The calls are words filed in the database; no cut-off is given here.

Experiments:
[1] = target: T1, Peroxisome proliferator-activated receptor alpha (Homo sapiens, UniProt Q07869); experiment: Partial agonist activity at N-terminal Gal4-fused human PPARalpha LBD transfected in human HepG2 cells assessed as receptor transactivation incubated for 20 hrs by luciferase based luminometric assay; type: cell-based
T1 sequence (Q07869 whole entry): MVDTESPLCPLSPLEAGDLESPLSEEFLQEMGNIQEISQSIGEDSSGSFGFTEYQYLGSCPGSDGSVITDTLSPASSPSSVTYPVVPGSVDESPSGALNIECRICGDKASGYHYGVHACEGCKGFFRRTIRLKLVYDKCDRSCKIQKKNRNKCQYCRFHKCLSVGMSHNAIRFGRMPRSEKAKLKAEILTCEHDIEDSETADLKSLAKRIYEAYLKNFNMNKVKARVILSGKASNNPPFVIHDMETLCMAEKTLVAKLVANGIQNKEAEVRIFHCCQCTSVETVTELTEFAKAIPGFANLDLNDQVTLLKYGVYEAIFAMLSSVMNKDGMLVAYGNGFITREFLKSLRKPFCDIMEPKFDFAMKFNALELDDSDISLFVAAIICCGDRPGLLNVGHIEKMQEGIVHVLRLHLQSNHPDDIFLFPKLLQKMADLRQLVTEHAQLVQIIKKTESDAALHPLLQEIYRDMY

[2] = target: T2, Peroxisome proliferator-activated receptor gamma (Homo sapiens, UniProt P37231); experiment: Partial agonist activity at N-terminal Gal4-fused human PPARgamma LBD transfected in human HepG2 cells assessed as receptor transactivation incubated for 20 hrs by luciferase based luminometric assay; type: cell-based
T2 sequence (P37231 whole entry): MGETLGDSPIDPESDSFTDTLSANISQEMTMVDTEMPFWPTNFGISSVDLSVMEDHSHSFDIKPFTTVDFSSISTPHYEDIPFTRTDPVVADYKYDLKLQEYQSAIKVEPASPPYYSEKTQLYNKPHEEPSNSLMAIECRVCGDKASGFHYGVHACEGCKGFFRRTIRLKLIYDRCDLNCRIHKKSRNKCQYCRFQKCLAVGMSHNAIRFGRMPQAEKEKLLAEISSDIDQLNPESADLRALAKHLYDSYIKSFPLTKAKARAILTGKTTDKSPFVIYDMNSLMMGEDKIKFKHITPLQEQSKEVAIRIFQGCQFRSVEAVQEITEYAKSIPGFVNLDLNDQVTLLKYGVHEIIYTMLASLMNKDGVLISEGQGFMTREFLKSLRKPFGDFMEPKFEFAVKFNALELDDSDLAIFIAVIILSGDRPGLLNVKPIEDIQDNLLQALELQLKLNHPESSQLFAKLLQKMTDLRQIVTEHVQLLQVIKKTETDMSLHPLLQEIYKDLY

[3] = target: T3, Peroxisome proliferator-activated receptor delta (Homo sapiens, UniProt Q03181); experiment: Partial agonist activity at N-terminal Gal4-fused human PPARdelta LBD transfected in human HepG2 cells assessed as receptor transactivation incubated for 20 hrs by luciferase based luminometric assay; type: cell-based
T3 sequence (Q03181 whole entry): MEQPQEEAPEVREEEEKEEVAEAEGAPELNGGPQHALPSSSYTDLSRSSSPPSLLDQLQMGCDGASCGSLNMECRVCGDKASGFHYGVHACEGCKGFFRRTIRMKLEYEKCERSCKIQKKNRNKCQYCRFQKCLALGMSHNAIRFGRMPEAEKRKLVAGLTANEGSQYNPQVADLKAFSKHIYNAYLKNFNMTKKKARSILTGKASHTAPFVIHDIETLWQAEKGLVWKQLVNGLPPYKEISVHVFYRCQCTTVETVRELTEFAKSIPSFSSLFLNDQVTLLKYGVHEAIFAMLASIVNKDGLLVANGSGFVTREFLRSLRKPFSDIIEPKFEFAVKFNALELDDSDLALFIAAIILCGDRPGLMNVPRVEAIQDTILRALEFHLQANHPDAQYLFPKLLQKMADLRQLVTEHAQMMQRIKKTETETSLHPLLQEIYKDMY

C2C12 [4] = experiment: Inhibition of mitochondrial pyruvate carrier in mouse C2C12 cells assessed as effect on ATP production at 10 uM incubated for 24 hrs by Seahorse XF pro analyzer; type: functional, cell-based
C2C12 [5] = experiment: Inhibition of mitochondrial pyruvate carrier in mouse C2C12 cells assessed as effect on oxygen consumption rate at 10 uM incubated for 24 hrs by Seahorse XF pro analyzer; type: functional, cell-based
C2C12 [6] = experiment: Inhibition of mitochondrial pyruvate carrier in mouse C2C12 cells assessed as increase of extracellular acidification rate at 10 uM incubated for 24 hrs by Seahorse XF pro analyzer; type: functional, cell-based
C2C12 [7] = experiment: Inhibition of mitochondrial pyruvate carrier in mouse C2C12 cells assessed as increase in OCR/ECAR ratio at 10 uM incubated for 24 hrs by Seahorse XF pro analyzer; type: functional, cell-based
HepG2 = experiment: Inhibition of lipid accumulation in oleic acid induced human HepG2 cells at 10 uM pretreated with oleic-acid for 24 hrs followed by compound addition and measured after 72 hrs by Oil Red O staining based analysis; type: functional, cell-based
Mus musculus [8] = experiment: Antihyperglycemic activity in STZ-induced diabetic Swiss albino mouse model assessed as triglyceride level at 30 mg/kg, po by biochemical analysis (reference value: 139.33 +/- 0.88 mg/dl); type: functional
Mus musculus [9] = experiment: Antihyperglycemic activity in STZ-induced diabetic Swiss albino mouse model assessed as fasting blood glucose at 30 mg/kg, po measured after 5 days by glucose meter analysis (reference value: […] +/- 63.77 mg/dl); type: functional; conditions: time 5 day
Mus musculus [10] = experiment: Antihyperglycemic activity in STZ-induced diabetic Swiss albino mouse model assessed as fasting blood glucose at 30 mg/kg, po measured after 15 days by glucose meter analysis (reference value: 452.6 +/-48.94 mg/dl); type: functional; conditions: time 15 day
Mus musculus [11] = experiment: Antihyperglycemic activity in STZ-induced diabetic Swiss albino mouse model assessed as total cholesterol level at 30 mg/kg, po by biochemical analysis (reference value: 184.33 +/- […]); type: functional
Mus musculus [12] = experiment: Antihyperglycemic activity in STZ-induced diabetic Swiss albino mouse model assessed as fasting blood glucose at 30 mg/kg, po measured after 10 days by glucose meter analysis (reference value: 435.2 +/-46.89 mg/dl); type: functional; conditions: time 10 day
Mus musculus [13] = experiment: Antihyperglycemic activity in STZ-induced diabetic Swiss albino mouse model assessed as very low-density lipoprotein cholesterol level at 30 mg/kg, po by biochemical analysis (reference value: 27.77 +/- 0.15 mg/dl); type: functional
Mus musculus [14] = experiment: Antihyperglycemic activity in STZ-induced diabetic Swiss albino mouse model assessed as fasting blood glucose at 30 mg/kg, po and measured immediately by glucose meter analysis (reference value: 365 +/-54.25 mg/dl); type: functional
Mus musculus [15] = experiment: Antihyperglycemic activity in STZ-induced diabetic Swiss albino mouse model assessed as low-density lipoprotein cholesterol level at 30 mg/kg, po by biochemical analysis (reference value: 113.33 +/- 0.35 mg/dl); type: functional
Mus musculus [16] = experiment: Antihyperglycemic activity in STZ-induced diabetic Swiss albino mouse model assessed as high-density lipoprotein cholesterol level at 30 mg/kg, po by biochemical analysis (reference value: 43.33 +/-[…]); type: functional

**Q.** How did the EC50 [1] turn out when `C[C@@H](Oc1ccc(-c2cccc3ccccc23)cc1)C(=O)O` was run?
**A.** The EC50 was 2.3 µM.

**Q.** `CC[C@H](Oc1ccc(-c2cccc3ccccc23)cc1)C(=O)O.NC1CCCCC1` was tested. Which EC50 [2] did it give?
**A.** Its EC50 is 11 µM.

**Q.** And the EC50 [1]?
**A.** Its EC50 is 0.183 µM.

**Q.** Which EC50 [1] does the source give for `C[C@H](Oc1ccc(-c2cccc3ccccc23)cc1)C(=O)O` here?
**A.** The EC50 was 1.8 µM.

**Q.** For `CCCc1c(OCCCOc2ccc(OCC(=O)O)cc2)ccc(C(C)=O)c1O`, which EC50 [3] is on record?
**A.** The EC50 was 1.6 µM.

**Q.** How did the EC50 [2] turn out when `CC[C@@H](Oc1ccc(-c2cccc3ccccc23)cc1)C(=O)O.NC1CCCCC1` was run?
**A.** The EC50 was 7.3 µM.

**Q.** What about the EC50 [1] of the same molecule?
**A.** Its EC50 is 1.42 µM.

**Q.** With `CCC(Oc1ccc(-c2cccc3ccccc23)cc1)C(=O)O` (racemic) as the molecule, how does the EC50 [2] read?
**A.** Its EC50 is 10 µM.

**Q.** And the EC50 [1]?
**A.** Its EC50 is 0.46 µM.

**Q.** How did the inhibition (C2C12 [4]) turn out when `CN(CCOc1ccc(CC2SC(=O)NC2=O)cc1)c1ccccn1` (stereo not drawn) was run?
**A.** Its inhibition is “inactive”.

**Q.** And the inhibition (C2C12 [5])?
**A.** The inhibition was “inactive”.

**Q.** What about the inhibition (C2C12 [6]) of the same molecule?
**A.** The inhibition was “inactive”.

**Q.** And the inhibition (C2C12 [7])?
**A.** The inhibition was “inactive”.

**Q.** And the inhibition (HepG2)?
**A.** Its inhibition is “Active”.

**Q.** Which results are given for `CCc1ccc(CCOc2ccc(CC3SC(=O)NC3=O)cc2)nc1` (stereo not drawn) [PIOGLITAZONE]?
**A.** Activity (Mus musculus [8]): 98.33 mg/dL; Activity (Mus musculus [9]): 351 mg/dL; Activity (Mus musculus [10]): 224.2 mg/dL; Activity (Mus musculus [11]): 88.67 mg/dL; Activity (Mus musculus [12]): 248 mg/dL; Activity (Mus musculus [13]): 19.33 mg/dL; Activity (Mus musculus [14]): 441.2 mg/dL; Activity (Mus musculus [15]): 20.5 mg/dL; Activity (Mus musculus [16]): 19.67 mg/dL
